Experimental data from patent US10300074B2, “Use of inhibitor of apoptosis protein (IAP) antagonists in HIV therapy” (Sanford-Burnham Medical Research Institute, priority 2014, dated 2019).

Experiments:
XIAP BIR1/2 = XIAP BIR1/2 (Homo sapiens (Human), UniProt P98170); assay: XIAP BIR1/2 Ki; type: binding; conditions: Table B-1
XIAP BIR3 = XIAP BIR3 (Homo sapiens (Human), UniProt P98170); assay: XIAP BIR3 Ki; type: binding; conditions: Table B-1
ML-IAP = ML-IAP (Homo sapiens (Human), UniProt Q96CA5); assay: ML-IAP Ki; type: binding; conditions: Table B-1
Sequence of ML-IAP (Q96CA5 whole entry): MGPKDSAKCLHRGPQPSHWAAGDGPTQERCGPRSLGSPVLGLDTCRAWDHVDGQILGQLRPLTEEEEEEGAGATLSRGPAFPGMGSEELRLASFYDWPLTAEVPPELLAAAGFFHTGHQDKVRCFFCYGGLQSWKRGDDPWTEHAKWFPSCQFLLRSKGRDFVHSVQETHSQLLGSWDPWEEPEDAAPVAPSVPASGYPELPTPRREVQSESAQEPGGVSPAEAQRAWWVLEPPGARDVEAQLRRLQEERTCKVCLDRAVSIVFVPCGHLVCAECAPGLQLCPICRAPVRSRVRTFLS

[1] = test system: HEK 293T cells infected with HIV-VSVg; type: cell-based
[2] = test system: latently infected JLat 10.6 cells; conditions: for Reactivation of latent HIV (GFP reporter expression): single agent, 24 hours; for Activation of HIV transcription, combination versus components alone: in combination with Compound 35, 24 hours
[3] = test system: Latently infected Jurkat JLat 10.6 cells; conditions: HDAC inhibitor in combination with Compound 35, 36 hours, normalized against background of HDAC inhibitor alone

Sequence of XIAP BIR1/2 (P98170 1-240): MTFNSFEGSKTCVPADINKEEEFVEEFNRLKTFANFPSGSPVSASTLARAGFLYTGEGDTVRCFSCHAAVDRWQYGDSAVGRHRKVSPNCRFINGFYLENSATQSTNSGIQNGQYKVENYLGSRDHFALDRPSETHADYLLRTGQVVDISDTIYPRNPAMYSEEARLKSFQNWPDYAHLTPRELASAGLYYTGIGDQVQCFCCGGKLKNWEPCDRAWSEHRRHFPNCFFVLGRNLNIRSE
Sequence of XIAP BIR3 (P98170 241-356): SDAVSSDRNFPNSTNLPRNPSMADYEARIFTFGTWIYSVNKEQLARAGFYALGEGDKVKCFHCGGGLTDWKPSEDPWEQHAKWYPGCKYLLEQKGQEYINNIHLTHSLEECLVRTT

Row | Compound | Ki (XIAP BIR1/2) [µM] | Ki (XIAP BIR3) [µM] | Ki (ML-IAP) [µM] | Viral gene transcription as measured by luciferase expression [1] | Reactivation of latent HIV (GFP reporter expression) [2] | Activation of HIV transcription, combination versus components alone [2] | Group: increase of GFP+ cells [3]
1 | CN[C@@H](C)C(=O)N[C@H]1CCS[C@H]2CCC(C(=O)N[C@@H]3CCCc4ccccc43)N2C1=O (stereo partly shown) [Compound 24] | > 50 | ≤ 25 | ≤ 25 |  |  |  | 
2 | CN[C@@H](C)C(=O)N[C@H]1CCO[C@H]2CC(C)(C)[C@@H](C(=O)N[C@@H]3CCCc4ccccc43)N2C1=O [Compound 26] | ≤ 25 | ≤ 25 | ≤ 25 |  |  |  | 
3 | CN[C@@H](C)C(=O)N[C@H]1CCO[C@H]2c3ccccc3C(C(=O)N[C@@H]3CCCc4ccccc43)N2C1=O (stereo partly shown) [Compound 27] | > 50 | ≤ 25 | ≤ 25 |  |  |  | 
4 | CN[C@@H](C)C(=O)N[C@H]1CCO[C@H]2CC[C@@H](C(=O)N[C@@H]3CCOc4ccccc43)N2C1=O [Compound 32] | > 50 | ≤ 25 | ≤ 25 |  |  |  | 
5 | CN[C@@H](C)C(=O)N[C@H]1CCO[C@H]2CC[C@@H](C(=O)N[C@@H]3CCCc4ccccc43)N2C1=O [Compound 33] | > 50 | ≤ 25 | ≤ 25 |  |  |  | 
6 | CN[C@@H](C)C(=O)N[C@H]1CCS[C@H]2CC[C@@H](C(=O)N[C@@H]3CCCc4ccccc43)N2C1=O [Compound 34] | > 50 | ≤ 25 | ≤ 25 |  |  |  | 
7 | CN[C@@H](C)C(=O)N[C@H]1CCS[C@H]2CC(C)(C)C(C(=O)N[C@@H]3CCCc4ccccc43)N2C1=O (stereo partly shown) [Compound 35] | ≤ 25 | ≤ 25 | ≤ 25 | enhancement of viral gene transcription, as measured by luciferase expression, was proportional to the loss of BIRC2/cIAP1 protein | caused reactivation of HIV |  | 
8 | CN[C@@H](C)C(=O)N[C@H]1CCS[C@H]2CC[C@H](C(=O)N[C@@H]3CCCc4ccccc43)N2C1=O [Compound 36] | > 50 | ≤ 25 | ≤ 25 |  |  |  | 
9 | CN[C@@H](C)C(=O)N[C@H]1CCO[C@H]2CC3(CC=CC3)C(C(=O)N[C@@H]3CCCc4ccccc43)N2C1=O (stereo partly shown) [Compound 42] | ≤ 25 | ≤ 25 | ≤ 25 |  |  |  | 
10 | CN[C@@H](C)C(=O)N[C@H]1CC(=O)N[C@H]2CC(C)(C)C(C(=O)N[C@@H]3CCCc4ccccc43)N2C1=O (stereo partly shown) [Compound 46] | > 50 | ≤ 25 | ≤ 25 |  |  |  | 
11 | CC(=O)NCCCCCCNC(C)=O [HMBA, hexamethylbisacetamide] |  |  |  |  |  | greater effect than treatment with any of the components alone | 
12 | Cc1[nH]c2ccccc2c1CCNCc1ccc(/C=C/C(=O)NO)cc1 [Panobinostat, panobinostat] |  |  |  |  |  | greater effect than treatment with any of the components alone | 
13 | CC[C@H](NC(=O)[C@H](C)NC)C(=O)N1C[C@@H](O)C[C@H]1Cc1c(-c2[nH]c3cc(F)ccc3c2C[C@@H]2C[C@H](O)CN2C(=O)[C@H](CC)NC(=O)[C@H](C)NC)[nH]c2cc(F)ccc12 [TL32711] |  |  |  |  | Reactivation of latent HIV in JLat 10.6 cells was achieved |  | 
14 | O=C(CCCCCCC(=O)Nc1ccccc1)NO [Vorinostat, vorinostat] |  |  |  |  |  | greater effect than treatment with any of the components alone | A (A 0-25%)
